Assay results published in ChEMBL document CHEMBL4000200, “Structure-activity relationships of 4-hydroxy-4-biaryl-proline acylsulfonamide tripeptides: A series of potent NS3 protease inhibitors for the treatment of hepatitis C virus” (Bioorg Med Chem Lett, 2017).

Assays:
Hepatitis C virus = test: Antiviral activity against HCV genotype 1b by cell based replicon assay; format: functional, Hepacivirus hominis
[1] = Inhibition of HCV genotype 1a NS3/4A protease; design: species or system Hepatitis C virus subtype 1a
Heart [2] = test: Cardiotoxicity in Langendorff perfused rabbit heart assessed as sinoatrial node recovery time at 10 uM perfused for 10 mins (reference value: 3 +/- 1%); format: toxicity, tissue-based, Oryctolagus cuniculus
Heart [3] = test: Cardiotoxicity in Langendorff perfused rabbit heart assessed as coronary flow at 10 uM perfused for 10 mins (reference value: -4 +/- 6%); format: toxicity, tissue-based, Oryctolagus cuniculus
Heart [4] = test: Cardiotoxicity in Langendorff perfused rabbit heart assessed as heart rate at 10 uM perfused for 20 mins (reference value: -3 +/- 3%); format: toxicity, tissue-based, Oryctolagus cuniculus
Heart [5] = test: Cardiotoxicity in Langendorff perfused rabbit heart assessed as sinoatrial node recovery time at 10 uM perfused for 20 mins (reference value: 4 +/- 5%); format: toxicity, tissue-based, Oryctolagus cuniculus
[6] = Clearance in rat at 5 mg/kg, iv; format: ADME, organism-based; conditions: in vivo
Heart [7] = test: Cardiotoxicity in Langendorff perfused rabbit heart assessed as heart rate at 10 uM perfused for 10 mins (reference value: -1 +/- 1%); format: toxicity, tissue-based, Oryctolagus cuniculus
[8] = AUC in rat at 15 mg/kg, po after 24 hrs; format: ADME, organism-based; design: dose 15 mg/kg, time < 24 hr, route oral; conditions: in vivo
[9] = Permeability of the compound at pH 7.4 by PAMPA; format: physicochemical; conditions: read-out: permeability
[10] = AUC in id dosed rat plasma after 4 hrs; format: ADME, organism-based; design: time < 4 hr
[11] = Half life in rat at 5 mg/kg, iv; format: ADME, organism-based; conditions: in vivo
[12] = Permeability of the compound at pH 5.5 by PAMPA; format: physicochemical; conditions: read-out: permeability
[13] = Oral bioavailability in rat at 15 mg/kg after 24 hrs; format: ADME, organism-based; conditions: in vivo
[14] = Drug uptake in rat liver at 15 mg/kg, po after 24 hrs; format: ADME, organism-based; conditions: read-out: Drug uptake
Heart [15] = test: Cardiotoxicity in Langendorff perfused rabbit heart assessed as coronary flow at 10 uM perfused for 20 mins (reference value: -6 +/- 8%); format: toxicity, tissue-based, Oryctolagus cuniculus
[16] = Drug uptake in id dosed rat liver after 4 hrs; format: ADME, organism-based; conditions: read-out: Drug uptake

SMILES | EC50 (Hepatitis C virus) | IC50 [1] | also measured
C=C[C@@H]1C[C@]1(NC(=O)[C@@H]1C[C@@](O)(c2cccc(Cl)c2)CN1C(=O)[C@@H](NC(=O)OC(C)(C)C)C(C)(C)C)C(=O)NS(=O)(=O)C1CC1 | 3660 nM | 80 nM | 
C=C[C@@H]1C[C@]1(NC(=O)[C@@H]1C[C@@](O)(c2cccc(CN3CCOCC3)c2)CN1C(=O)[C@@H](NC(=O)OC(C)(C)C)C(C)(C)C)C(=O)NS(=O)(=O)C1CC1 | 3460 nM | 162 nM | 
C=C[C@@H]1C[C@]1(NC(=O)[C@@H]1C[C@@](O)(c2ccc(OC)cc2)CN1C(=O)[C@@H](NC(=O)OC(C)(C)C)C(C)(C)C)C(=O)NS(=O)(=O)C1CC1 | 1470 nM | 105 nM | 
C=C[C@@H]1C[C@]1(NC(=O)[C@@H]1C[C@@](O)(c2ccccc2)CN1C(=O)[C@@H](NC(=O)OC(C)(C)C)C(C)(C)C)C(=O)NS(=O)(=O)C1CC1 | 2360 nM | 140 nM | 
C=C[C@@H]1C[C@]1(NC(=O)[C@@H]1C[C@@](O)(c2ccc(C)c(F)c2)CN1C(=O)[C@@H](NC(=O)OC(C)(C)C)C(C)(C)C)C(=O)NS(=O)(=O)C1CC1 | 4240 nM | 568 nM | 
C=C[C@@H]1C[C@]1(NC(=O)[C@@H]1C[C@@](O)(c2ccccc2CN2CCOCC2)CN1C(=O)[C@@H](NC(=O)OC(C)(C)C)C(C)(C)C)C(=O)NS(=O)(=O)C1CC1 | 4950 nM | 291 nM | 
C=CC[C@]1(O)C[C@@H](C(=O)N[C@]2(C(=O)NS(=O)(=O)C3CC3)C[C@H]2C=C)N(C(=O)[C@@H](NC(=O)OC(C)(C)C)C(C)(C)C)C1 | 30500 nM | 1500 nM | 
C=C[C@@H]1C[C@]1(NC(=O)[C@@H]1C[C@@](OC)(c2ccc(-c3ccccc3)cc2)CN1C(=O)[C@@H](NC(=O)OC(C)(C)C)C(C)(C)C)C(=O)NS(=O)(=O)C1CC1 | 9 nM | 2 nM | Activity (Heart [2]): 8%; Activity (Heart [3]): 27%; Activity (Heart [4]): -3%; Activity (Heart [5]): 7%; clearance [6]: 17.8 mL/min/kg; Activity (Heart [7]): -6%; AUC at 24 h [8]: 14.1 µM·h; Papp [9]: 43.8 ×10⁻⁶ cm/s; AUC at 4 h [10]: 2.45 µM·h; half-life [11]: 4.6 h; Papp [12]: 38.1 ×10⁻⁶ cm/s; bioavailability [13]: 58%; concentration at 24 h [14]: 1100 nM; Activity (Heart [15]): 20%; concentration at 4 h [16]: 195000 ng/g
C=C[C@@H]1C[C@]1(NC(=O)[C@@H]1C[C@@](O)(c2cccc(OC(C)C)c2)CN1C(=O)[C@@H](NC(=O)OC(C)(C)C)C(C)(C)C)C(=O)NS(=O)(=O)C1CC1 | 6250 nM | 101 nM | 
C=C[C@@H]1C[C@]1(NC(=O)[C@@H]1C[C@@](O)(c2ccc3ccccc3c2)CN1C(=O)[C@@H](NC(=O)OC(C)(C)C)C(C)(C)C)C(=O)NS(=O)(=O)C1CC1 | 412 nM | 26 nM | 
C=C[C@@H]1C[C@]1(NC(=O)[C@@H]1C[C@@](O)(c2cccc(N(C)C)c2)CN1C(=O)[C@@H](NC(=O)OC(C)(C)C)C(C)(C)C)C(=O)NS(=O)(=O)C1CC1 | 3400 nM | 960 nM | 
C=C[C@@H]1C[C@]1(NC(=O)[C@@H]1C[C@@](O)(c2ccc(-n3cccc3)cc2)CN1C(=O)[C@@H](NC(=O)OC(C)(C)C)C(C)(C)C)C(=O)NS(=O)(=O)C1CC1 | 97 nM | 7 nM | 
C=C[C@@H]1C[C@]1(NC(=O)[C@@H]1C[C@@H](Oc2ncc(OC)c3ccc(Cl)cc23)CN1C(=O)[C@@H](NC(=O)OC(C)(C)C)C(C)(C)C)C(=O)NS(=O)(=O)C1CC1 |  |  | Activity (Heart [2]): -1%; Activity (Heart [3]): -3%; Activity (Heart [4]): -1%; Activity (Heart [5]): 4%; Activity (Heart [7]): 1%; Activity (Heart [15]): -1%
C=C[C@@H]1C[C@]1(NC(=O)[C@@H]1C[C@@](O)(c2nc3ccccc3s2)CN1C(=O)[C@@H](NC(=O)OC(C)(C)C)C(C)(C)C)C(=O)NS(=O)(=O)C1CC1 | 1120 nM | 127 nM | 
C=C[C@@H]1C[C@]1(NC(=O)[C@@H]1C[C@@](O)(c2ccc(Oc3ccccc3)cc2)CN1C(=O)[C@@H](NC(=O)OC(C)(C)C)C(C)(C)C)C(=O)NS(=O)(=O)C1CC1 | 265 nM | 50 nM | 
C=C[C@@H]1C[C@]1(NC(=O)[C@@H]1C[C@@](O)(c2ccc(-c3nccs3)cc2)CN1C(=O)[C@@H](NC(=O)OC(C)(C)C)C(C)(C)C)C(=O)NS(=O)(=O)C1CC1 | 41 nM | 2 nM | 

SMILES | EC50 (Hepatitis C virus) | IC50 [1] | also measured
C=C[C@@H]1C[C@]1(NC(=O)[C@@H]1C[C@@](O)(c2ccc(-c3ccccc3OC)cc2)CN1C(=O)[C@@H](NC(=O)OC(C)(C)C)C(C)(C)C)C(=O)NS(=O)(=O)C1CC1 | 24 nM | 5 nM | 
C=C[C@@H]1C[C@]1(NC(=O)[C@@H]1C[C@@](O)(c2cccc(C)c2)CN1C(=O)[C@@H](NC(=O)OC(C)(C)C)C(C)(C)C)C(=O)NS(=O)(=O)C1CC1 | 3270 nM | 76 nM | 
C=C[C@@H]1C[C@]1(NC(=O)[C@@H]1C[C@@](O)(c2ccc(-c3ccccn3)cc2)CN1C(=O)[C@@H](NC(=O)OC(C)(C)C)C(C)(C)C)C(=O)NS(=O)(=O)C1CC1 | 39 nM | 2 nM | 
C=C[C@@H]1C[C@]1(NC(=O)[C@@H]1C[C@@](O)(c2cc(C)ccc2C)CN1C(=O)[C@@H](NC(=O)OC(C)(C)C)C(C)(C)C)C(=O)NS(=O)(=O)C1CC1 | 2310 nM | 136 nM | 
C=C[C@@H]1C[C@]1(NC(=O)[C@@H]1C[C@@](O)(c2ccc(F)c(C)c2)CN1C(=O)[C@@H](NC(=O)OC(C)(C)C)C(C)(C)C)C(=O)NS(=O)(=O)C1CC1 | 7700 nM | 134 nM | 
C=C[C@@H]1C[C@]1(NC(=O)[C@@H]1C[C@@H](Oc2nccc3cc(OC)ccc23)CN1C(=O)[C@@H](NC(=O)OC(C)(C)C)C(C)(C)C)C(=O)NS(=O)(=O)C1CC1 |  | 1 to 2 nM | Activity (Heart [2]): 69%; Activity (Heart [3]): 12%; Activity (Heart [4]): -32%; Activity (Heart [5]): 360%; Activity (Heart [7]): -13%; Papp [9]: 17.8 ×10⁻⁶ cm/s; AUC at 4 h [10]: 10.4 µM·h; Papp [12]: 57.4 ×10⁻⁶ cm/s; Activity (Heart [15]): 10%; concentration at 4 h [16]: 64700 ng/g
C=C[C@@H]1C[C@]1(NC(=O)[C@@H]1C[C@@](O)(c2cccc(F)c2)CN1C(=O)[C@@H](NC(=O)OC(C)(C)C)C(C)(C)C)C(=O)NS(=O)(=O)C1CC1 | 4060 nM | 57 nM | 
C=C[C@@H]1C[C@]1(NC(=O)[C@@H]1CC(=O)CN1C(=O)[C@@H](NC(=O)OC(C)(C)C)C(C)(C)C)C(=O)NS(=O)(=O)C1CC1 | 70700 nM | 3900 nM | 
C=C[C@@H]1C[C@]1(NC(=O)[C@@H]1C[C@@](O)(c2cccc(OC)c2)CN1C(=O)[C@@H](NC(=O)OC(C)(C)C)C(C)(C)C)C(=O)NS(=O)(=O)C1CC1 | 3700 nM | 52 nM | 
C=C[C@@H]1C[C@]1(NC(=O)[C@@H]1C[C@@](O)(c2cc(C)cc(C)c2)CN1C(=O)[C@@H](NC(=O)OC(C)(C)C)C(C)(C)C)C(=O)NS(=O)(=O)C1CC1 | 6450 nM | 80 nM | 
C=C[C@@H]1C[C@]1(NC(=O)[C@@H]1C[C@@](O)(c2ccc(-c3ccccc3)cc2)CN1C(=O)[C@@H](NC(=O)OC(C)(C)C)C(C)(C)C)C(=O)NS(=O)(=O)C1CC1 | 22 to 26 nM | 4 nM | Activity (Heart [2]): 2%; Activity (Heart [3]): 2%; Activity (Heart [4]): -4%; Activity (Heart [5]): 7%; Activity (Heart [7]): -2%; Papp [9]: 21.1 ×10⁻⁶ cm/s; AUC at 4 h [10]: 0.9 µM·h; Papp [12]: 7.9 ×10⁻⁶ cm/s; Activity (Heart [15]): -2%; concentration at 4 h [16]: 128 ng/g
C=C[C@@H]1C[C@]1(NC(=O)[C@@H]1C[C@@](O)(c2cccc(C(C)C)c2)CN1C(=O)[C@@H](NC(=O)OC(C)(C)C)C(C)(C)C)C(=O)NS(=O)(=O)C1CC1 | 8370 nM | 703 nM | 
C=C[C@@H]1C[C@]1(NC(=O)[C@@H]1C[C@@](O)(c2cc(F)ccc2OC)CN1C(=O)[C@@H](NC(=O)OC(C)(C)C)C(C)(C)C)C(=O)NS(=O)(=O)C1CC1 | 3940 nM | 728 nM | 
C=C[C@@H]1C[C@]1(NC(=O)[C@@H]1C[C@@](O)(c2cccc(-c3ccc(OC)cc3)c2)CN1C(=O)[C@@H](NC(=O)OC(C)(C)C)C(C)(C)C)C(=O)NS(=O)(=O)C1CC1 | 3210 nM | 620 nM | 
C=C[C@@H]1C[C@]1(NC(=O)[C@@H]1C[C@@](O)(c2ccc(F)cc2)CN1C(=O)[C@@H](NC(=O)OC(C)(C)C)C(C)(C)C)C(=O)NS(=O)(=O)C1CC1 | 2470 nM | 190 nM | 
